Measurements as given in patent publication US20080125496A1, “ANTIMICROBIAL FLAVOR AND ORAL CARE COMPOSITION CONTAINING THE SAME” (TAKASAGO INTERNATIONAL CORPORATION, priority 2001, published 2008).
≈ marks a conversion by molar mass, not a printed value. Read-outs that look alike come from different tables or passages of the source.

Key:
Assay type in all cases: cell-based
[1] = tested on: Prevotella intermedia JCM 6322; assay: MIC by agar plate dilution method, Pt-1; settings: for MIC: Prevotella intermedia, read-out: MIC Pt-1 (paradentosis-related bacteria)
Protocol: (§1) The minimum inhibitory activities of the antimicrobial flavors of the invention on anaerobic oral bacteria were measured by an agar plate dilution method.
(§2) All the test strains were obtained from Riken (The Institute of Physical and Chemical Research). The names and abbreviations of the strains are shown in Table 1 below (The abbreviations are used in the following description).
(§3) Each test microorganism kept frozen (−80° C.) in glycerol at a concentration of 25% was thawed. A 100 μl portion of the suspension was inoculated into 10 ml of a liquid medium. A Gifu university anaerobic medium (GAM) (Nissui Pharmaceutical Co., Ltd) having added thereto Hemin (Tokyo Kasei) and Menadione (Sigma) was used for Su-1 and Fn-1. Schaedler Broth (BBL) having added thereto Hemin and Menadione was used for the other strains. The culture was anaerobically incubated at 37° C. for 72 hours by using BBL Gas Pack Anaerobic System. After the cultivation, the microbial cell suspension of Su-1 was 10-fold diluted to prepare an inoculum. The cultures of Fn-1 and Pg-1 were used as such as an inoculum. The cultures of Pt-1, Aa-1, and Av-1 were subjected to centrifugation, and the separated microbial cells were suspended in 2 ml of sterilized physiological saline to prepare the respective inoculums.
(§4) An agar medium prepared by adding 2% agar (Difco), Hemin, and Menadione to Trypticase Soy Broth (BBL) was used. A test sample (antimicrobial flavor) was dissolved in ethanol to prepare 2-fold serial dilutions. To 10 ml of the agar medium was added 100 μl of each dilution and stirred well. The agar medium was transferred to a petri dish (diameter: 9 cm) and solidified at room temperature. The solidified agar medium was inoculated with 5 μl of the inoculum by means of a multipoint inoculator (Microplanter MIT-P27, supplied by Sakuma Seisakusho), followed by culturing at 37° C. for 72 hours under anaerobic conditions. The growth of the test microorganism was compared with a blank petri dish (the agar medium to which 100 μl of ethanol had been added). The lowest sample concentration that inhibited growth was taken as MIC (ppm).
(§5) Antimicrobial activities (MIC; ppm) of the aromahygiene base (AHB) prepared in (1) and the antimicrobial flavor compositions prepared in (2) (Examples 2-1 to 2-3) and Comparative Examples 2-1 to 2-3 were measured in the same manner as in Example 1 (2).

[2] = tested on: Actinomyces naeslundii JCM 8350; assay: MIC by agar plate dilution method, Aa-1; settings: for MIC: Actinomyces naeslundii, read-out: MIC Aa-1 (caries-related bacteria)
Protocol: as §1, §2, §3, §4, §5

[3] = tested on: Fusobacterium nucleatum JCM 6328; assay: MIC by agar plate dilution method, Fn-1; settings: for MIC: Fusobacterium nucleatum, read-out: MIC Fn-1 (paradentosis-related bacteria)
Protocol: as §1, §2, §3, §4, §5

[4] = tested on: Actinomyces viscosus JCM 8352; assay: MIC by agar plate dilution method, Av-1; settings: for MIC: Actinomyces viscosus, read-out: MIC Av-1 (caries-related bacteria)
Protocol: as §1, §2, §3, §4, §5

[5] = tested on: Porphyromonas gingivalis JCM 8525; assay: MIC by agar plate dilution method, Pg-1; settings: for MIC Pg-1 (paradentosis-related bacteria; head Fg-1 in Tables 2 and 3): agar medium, 37° C., 72 hours, anaerobic conditions; for MIC: Porphyromonas gingivalis, JCM8525, 72 h, read-out: MIC Pg-1 (paradentosis-related bacteria; head Fg-1 in Tables 2 and 3)
Protocol: as §1, §2, §3, §4, §5

[6] = tested on: Streptococcus mutans JCM 5175; assay: MIC by agar plate dilution method, Su-1; settings: for MIC: Streptococcus mutans, read-out: MIC Su-1 (caries-related bacteria)
Protocol: as §1, §2, §3, §4, §5

[7] = agar medium, 37° C., 72 hours, anaerobic conditions

Row | Compound | MIC Pt-1 (paradentosis-related bacteria) [1, 7] | MIC Aa-1 (caries-related bacteria) [2, 7] | MIC Fn-1 (paradentosis-related bacteria) [3, 7] | MIC Av-1 (caries-related bacteria) [4, 7] | MIC Pg-1 (paradentosis-related bacteria; head Fg-1 in Tables 2 and 3) [5] | MIC Su-1 (caries-related bacteria) [6, 7] | MIC ([1]; JCM6322, agar medium, 37° C., 72 hours, anaerobic conditions) | MIC ([2]; JCM8350, agar medium, 37° C., 72 hours, anaerobic conditions) | MIC ([3]; JCM6328, agar medium, 37° C., 72 hours, anaerobic conditions) | MIC ([4]; JCM8352, agar medium, 37° C., 72 hours, anaerobic conditions) | MIC [5] | MIC ([6]; JCM5175, agar medium, 37° C., 72 hours, anaerobic conditions) | MIC ([1]; JCM6322, 72 h) | MIC ([2]; JCM8350, 72 h) | MIC ([3]; JCM6328, 72 h) | MIC ([4]; JCM8352, 72 h) | MIC ([6]; JCM5175, 72 h)
1 | CC/C(=C\C[C@H]1CC=C(C)C1(C)C)CO [Levosandol] | 31.3 ppm | 62.5 ppm | 62.5 ppm | 62.5 ppm | 31.3 ppm | 125 ppm |  |  |  |  |  |  |  |  |  |  | 
2 | CC(C=O)Cc1ccc(C(C)(C)C)cc1 (stereo not drawn) [Lilial] | 62.5 ppm | 125 ppm | 500 ppm | 500 ppm | 62.5 ppm | 500 ppm |  |  |  |  |  |  |  |  |  |  | 
3 | COC(=O)c1c(C)cc(O)c(C)c1O [Methyl atrarate] | 62.5 ppm | 62.5 ppm | 125 ppm | 62.5 ppm | 31.3 ppm | >1000 ppm |  |  |  |  |  |  |  |  |  |  | 
4 | CCC(O)/C(C)=C/C1(C)CC2C=CC1C2 (stereo not drawn) [Methyl sandeflor] | 62.5 ppm | 250 ppm | 250 ppm | 125 ppm | 62.5 ppm | 500 ppm |  |  |  |  |  |  |  |  |  |  | 
5 | C=CC(C)(O)CC/C=C(\C)CCC=C(C)C (stereo not drawn) [Neroridol] | 31.3 ppm | 125 ppm | 50 ppm | 125 ppm | 31.3 ppm | 500 ppm |  |  |  |  |  |  |  |  |  |  | 
6 | CC(=O)c1cc2c(cc1C)C(C)(C)C(C)C2(C)C (stereo not drawn) [Phantolid] | 62.5 ppm | >1000 ppm | >1000 ppm | >1000 ppm | 31.3 ppm | >1000 ppm |  |  |  |  |  |  |  |  |  |  | 
7 | O=CCc1ccccc1 [Phenylacetaldehyde] |  |  |  |  |  |  | 15.6 µg/mL (≈ 130 µM) | 500 µg/mL (≈ 4160 µM) | 1000 µg/mL (≈ 8320 µM) | 250 µg/mL (≈ 2080 µM) | 15.6 µg/mL (≈ 130 µM) | > 1000 µg/mL |  |  |  |  | 
8 | CC1=CCC(CCC(C)C(C)O)C1(C)C (stereo not drawn) [Sandalore] | 31.3 ppm | 125 ppm | 125 ppm | 125 ppm | 31.3 ppm | 250 ppm |  |  |  |  |  |  |  |  |  |  | 
9 | CC1=CCC(C/C=C(\C)CO)C1(C)C (stereo not drawn) [Santalinol] | 31.3 ppm | 62.5 ppm | 125 ppm | 62.5 ppm | 15.6 ppm | 250 ppm |  |  |  |  |  |  |  |  |  |  | 
10 | CC(=O)c1cc2c(cc1C)C(C)(C)C(C)CC2(C)C (stereo not drawn) [Tonalid] |  |  |  |  |  |  |  |  |  |  | 15.6 µg/mL (≈ 60.4 µM) |  | 62.5 µg/mL (≈ 242 µM) | > 1000 µg/mL | > 1000 µg/mL | > 1000 µg/mL | > 1000 µg/mL
11 | COc1ccccc1C=CC=O [o-Methoxycinnamic aldehyde] | 62.5 ppm | 250 ppm | 250 ppm | 250 ppm | 7.8 ppm | 250 ppm |  |  |  |  |  |  |  |  |  |  | 
12 | Isocamphylcyclohexanol | 3.9 ppm | 31.3 ppm | 31.3 ppm | 31.3 ppm | 3.9 ppm | 31.3 ppm |  |  |  |  |  |  |  |  |  |  | 
